Values after ≈ are worked out from the molar mass of the structure shown.
Tests used:
[1] = system: Mycobacterium tuberculosis; assay: Antitubercular activity against isoniazid,streptomycin,rifampicin,ethambutol,para-aminosalicylate,prothionamide,capreomycin-resistant Mycobacterium tuberculosis clinical isolate 14862 assessed as bacterial growth inhibition incubated for 7 days by MABA assay; type: functional; conditions: clinical isolate 14862, 168 h, time 7 day
[2] = system: Mycobacterium tuberculosis; assay: Antitubercular activity against isoniazid,streptomycin,rifampicin,ethambutol, rifabutin, para-aminosalicylat, ofloxacin-resistant Mycobacterium tuberculosis clinical isolate 13946 assessed as inhibition of bacterial growth incubated for 7 days by MABA assay; type: functional; conditions: clinical isolate 13946, 168 h, time 7 day

SMILES	MIC [1] [µg/mL]	MIC [2] [µg/mL]
O=C(OC1CCC(CN2CCN(c3cc(=O)c4cc(C(F)(F)F)cc([N+](=O)[O-])c4s3)CC2)CC1)c1ccccc1 (centres undefined)	0.162 (≈ 0.281 µM)	0.216 (≈ 0.375 µM)
NNC(=O)c1ccncc1 [ISONIAZID]	> 10	> 10
CC(=O)OC1CCC(CN2CCN(c3cc(=O)c4cc(C(F)(F)F)cc([N+](=O)[O-])c4s3)CC2)CC1 (centres undefined)	0.062 (≈ 0.121 µM)	0.062 (≈ 0.121 µM)
O=c1cc(N2CCN(CC3CCC(OS(=O)(=O)c4ccccc4)CC3)CC2)sc2c([N+](=O)[O-])cc(C(F)(F)F)cc12 (centres undefined)	0.002 (≈ 0.00327 µM)	0.001 (≈ 0.00163 µM)
CS(=O)(=O)OC1CCC(CN2CCN(c3cc(=O)c4cc(C(F)(F)F)cc([N+](=O)[O-])c4s3)CC2)CC1 (centres undefined)	0.001 (≈ 0.00182 µM)	< 0.001
CO[C@H]1/C=C/O[C@@]2(C)Oc3c(C)c(O)c4c(O)c(c(/C=N/N5CCN(C)CC5)c(O)c4c3C2=O)NC(=O)/C(C)=C\C=C\[C@H](C)[C@H](O)[C@@H](C)[C@@H](O)[C@@H](C)[C@H](OC(C)=O)[C@@H]1C [RIFAMPIN]	> 10	> 10
O=c1cc(N2CCN(CC3CCC(OS(=O)(=O)c4cccnc4)CC3)CC2)sc2c([N+](=O)[O-])cc(C(F)(F)F)cc12 (centres undefined)	< 0.001	< 0.001

Reference: ChEMBL document CHEMBL4825698, “Identification of novel benzothiopyranones with ester and amide motifs derived from active metabolite as promising leads against Mycobacterium tuberculosis” (Eur J Med Chem, 2021)
